Laboratory results from ChEMBL document CHEMBL3396990, “Development of 1,3-diphenyladamantane derivatives as nonsteroidal progesterone receptor antagonists” (Bioorg Med Chem, 2015).
Active and inactive are the calls of the source. The calls are words filed in the database; no cut-off is given here.

Columns and labels:
[1] = biological target: T1, Progesterone receptor (Homo sapiens) (UniProt P06401); experiment: Agonist activity at PR in human T47D cells assessed as induction of alkaline phosphatase expression after 24 hrs by plate reader analysis; type: cell-based
T1 sequence (whole entry): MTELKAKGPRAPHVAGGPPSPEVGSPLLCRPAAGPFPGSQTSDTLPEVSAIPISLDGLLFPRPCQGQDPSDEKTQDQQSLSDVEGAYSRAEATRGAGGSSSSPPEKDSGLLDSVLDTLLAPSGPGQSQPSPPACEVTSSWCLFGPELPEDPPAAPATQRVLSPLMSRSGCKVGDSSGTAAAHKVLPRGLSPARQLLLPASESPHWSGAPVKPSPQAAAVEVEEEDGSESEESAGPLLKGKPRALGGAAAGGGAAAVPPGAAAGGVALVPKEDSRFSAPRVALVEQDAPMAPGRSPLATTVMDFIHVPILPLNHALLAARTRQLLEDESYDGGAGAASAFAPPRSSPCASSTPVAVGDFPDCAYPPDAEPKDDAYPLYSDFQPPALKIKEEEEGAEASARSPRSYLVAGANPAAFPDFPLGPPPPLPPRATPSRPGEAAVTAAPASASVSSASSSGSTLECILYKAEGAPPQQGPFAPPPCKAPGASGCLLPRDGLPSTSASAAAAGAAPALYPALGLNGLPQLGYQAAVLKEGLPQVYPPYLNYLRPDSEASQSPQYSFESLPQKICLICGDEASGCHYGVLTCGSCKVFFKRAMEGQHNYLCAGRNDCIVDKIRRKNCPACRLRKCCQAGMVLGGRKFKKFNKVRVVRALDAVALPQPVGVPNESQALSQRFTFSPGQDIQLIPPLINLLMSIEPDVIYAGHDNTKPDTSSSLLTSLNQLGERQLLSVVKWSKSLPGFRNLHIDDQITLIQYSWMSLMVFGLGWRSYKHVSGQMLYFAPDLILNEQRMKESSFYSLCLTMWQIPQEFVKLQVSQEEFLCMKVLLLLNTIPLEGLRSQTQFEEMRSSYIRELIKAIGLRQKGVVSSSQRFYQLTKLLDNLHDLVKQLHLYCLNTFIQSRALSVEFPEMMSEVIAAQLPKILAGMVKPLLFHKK

Progesterone receptor [2] = biological target: T2, Progesterone receptor (Homo sapiens, UniProt P06401); experiment: Antagonist activity at PR in human T47D cells assessed as inhibition of progesterone-inducted alkaline phosphatase expression after 24 hrs by plate reader analysis; type: cell-based
T2 sequence (P06401 whole entry): T1 sequence (whole entry)

Progesterone receptor [3] = biological target: T2, Progesterone receptor; experiment: Displacement of [1,2,6,7-3H]progesterone from human recombinant PR LBD after 24 hrs by liquid scintillation counting analysis

## COC(=O)Nc1ccc(C23CC4CC(CC(c5ccc(C#N)cc5)(C4)C2)C3)cc1
[1]
  Activity: inactive
Progesterone receptor [2]
  IC50: 25 nM
Progesterone receptor [3]
  IC50: > 10000 nM

## COC(=O)N(C)c1ccc(C23CC4CC(CC(c5ccc(C#N)cc5)(C4)C2)C3)cc1
[1]
  Activity: inactive
Progesterone receptor [2]
  IC50: 36.2 nM

## CN(C(=O)c1ccccc1)c1ccc(C23CC4CC(CC(c5ccc(C#N)cc5)(C4)C2)C3)cc1
[1]
  Activity: inactive
Progesterone receptor [2]
  IC50: 311 nM
Progesterone receptor [3]
  IC50: 228 nM

## CC(=O)N(C)c1ccc(C23CC4CC(CC(c5ccc(C#N)cc5)(C4)C2)C3)cc1
[1]
  Activity: inactive
Progesterone receptor [2]
  IC50: 25.8 nM
Progesterone receptor [3]
  IC50: 53 nM

## N#Cc1ccc(C23CC4CC(C2)CC(c2ccc([N+](=O)[O-])cc2)(C4)C3)cc1
[1]
  Activity: inactive
Progesterone receptor [2]
  IC50: 53 nM

## N#Cc1ccc(C23CC4CC(C2)CC(c2ccc(N(Cc5ccccc5)Cc5ccccc5)cc2)(C4)C3)cc1
[1]
  Activity: inactive
Progesterone receptor [2]
  IC50: > 1000 nM

## CS(=O)(=O)Nc1ccc(C23CC4CC(CC(c5ccc(C#N)cc5)(C4)C2)C3)cc1
[1]
  Activity: inactive
Progesterone receptor [2]
  IC50: 119 nM

## CCN(C(C)=O)c1ccc(C23CC4CC(CC(c5ccc(C#N)cc5)(C4)C2)C3)cc1
[1]
  Activity: inactive
Progesterone receptor [2]
  IC50: 39.5 nM

## CCCCCC(=O)Nc1ccc(C23CC4CC(CC(c5ccc(C#N)cc5)(C4)C2)C3)cc1
[1]
  Activity: inactive
Progesterone receptor [2]
  IC50: 174 nM

## CN(c1ccc(C23CC4CC(CC(c5ccc(C#N)cc5)(C4)C2)C3)cc1)S(C)(=O)=O
[1]
  Activity: inactive
Progesterone receptor [2]
  IC50: 74 nM

## N#Cc1ccc(C23CC4CC(CC(c5ccc(N)cc5)(C4)C2)C3)cc1
[1]
  Activity: inactive
Progesterone receptor [2]
  IC50: 178 nM

## CC(=O)Nc1ccc(C23CC4CC(CC(c5ccc(C#N)cc5)(C4)C2)C3)cc1
[1]
  Activity: inactive
Progesterone receptor [2]
  IC50: 58.4 nM

## N#Cc1ccc(C23CC4CC(C2)CC(c2ccc(NC(=O)c5ccccc5)cc2)(C4)C3)cc1
[1]
  Activity: inactive
Progesterone receptor [2]
  IC50: 404 nM

## CCCCCC(=O)N(C)c1ccc(C23CC4CC(CC(c5ccc(C#N)cc5)(C4)C2)C3)cc1
[1]
  Activity: inactive
Progesterone receptor [2]
  IC50: 125 nM
